Laboratory results from US11052154B2, “Ras protein degradation inducing molecule and pharmaceutical composition” (Tokyo University of Science Foundation, priority 2016, dated 2021).

Key:
[1] = Acute toxicity, single oral dose in Jcl:ICR mice; assay type: in vivo, mouse
Procedure: Acute toxicity when TUS-007 was orally administered to Jcl:ICR mice (8 weeks old, female) (CLEA Japan, Inc.) in a single dose of 80 mg/kg body weight, 300 mg/kg body weight, or 1000 mg/kg body weight was evaluated.

wild-type K-Ras protein = target: T1, wild-type K-Ras protein (Homo sapiens, UniProt P01116); assay: Degradation (knockdown) of wild-type K-Ras protein forcibly expressed in HeLa cells, Western blot analysis; assay type: cell-based; settings: FIG. 2
T1 construct: expressed in transfected cells; host or cells: HeLa
T1 sequence (P01116 1-188 isoform P01116-2): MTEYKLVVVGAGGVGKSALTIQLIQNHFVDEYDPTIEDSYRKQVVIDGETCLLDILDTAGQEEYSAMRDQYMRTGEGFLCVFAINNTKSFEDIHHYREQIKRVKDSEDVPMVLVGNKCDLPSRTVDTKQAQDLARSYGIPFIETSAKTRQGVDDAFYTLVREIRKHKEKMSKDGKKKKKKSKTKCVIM
Procedure: In Example 3, degradation (knockdown) of a forcibly expressed wild-type K-Ras protein in HeLa cells through TUS-007 was evaluated by Western blot analysis.
A plasmid expressing the wild-type K-Ras protein (K-Ras-WT) was prepared, as in Example 2.
As in Example 2, the plasmid was introduced into HeLa cells to transiently overexpress the wild-type K-Ras protein (specifically, a fusion protein of the wild-type K-Ras protein and GFP through a HA tag) or a DsRed protein for comparison in the cells. HeLa cells into which the plasmid had been introduced were seeded in a 24-well plate at a cell density of 4×10^4 cells/well, and then cultured under conditions of 37° C. and 5 vol % CO2 for 40 hours.
Culture was performed for 40 hours after introduction of the plasmid, and then TUS-007 was added to HeLa cells as follows. […]
After electrophoresis, proteins were transferred to a PVDF membrane (Immobion™-P, Millipore) under conditions of 100 V and 120 minutes using a tank-type blotting device and a transfer buffer (25 mM Tris-HCl, 195 mM glycine, 0.01% SDS, 15% methanol). […] Subsequently, the membrane was treated with a chemiluminescence reagent Immobilon™ Western (Millipore), and then chemiluminescence was detected using a lumino image analyzer LAS-3000 (FUJIFILM Corporation). […]

CCC(C)[C@H](NC(=O)CCCCCCNC(=O)[C@H](CC(C)C)NC(=O)CNC(=O)c1cc(Cl)ccc1Cl)C(=O)Nc1ccc2[nH]c(Cc3c[nH]c4ccccc34)nc2c1 (stereo in doubt) [TUS-007]
LD50 ([1]; single oral dose): > 1000 mg/kg body weight
general condition of the mice (acute toxicity) ([1]; single oral dose of 80, 300 or 1000 mg/kg body weight): no abnormality in the general condition of the mice
amount of the wild-type K-Ras protein (Western blot) (wild-type K-Ras protein; 24 hours after addition, relative to control (DMSO)): the amount of the wild-type K-Ras protein was reduced
amount of the wild-type K-Ras protein when both TUS-007 and MLN2238 were added (Western blot) (wild-type K-Ras protein; MLN2238 co-added, vs control (DMSO)): the amount of the wild-type K-Ras protein was increased as compared with the amount of the control (DMSO)
